Experimental data published in patent US20220089710A1, “Method of Treating Signs and Symptoms of Osteoarthritis” (Pfizer Inc., priority 2019, published 2022).

Assays:
[1] = tested on: patients with moderate to severe OA of the hip or knee; experiment: Example 1: randomized, double-blind, placebo-controlled dose-titration study of SC tanezumab (16-week treatment), efficacy: WOMAC Pain, WOMAC Physical Function, PGA-OA, average daily index joint pain; type: in vivo, human; conditions: for PGA-OA: Diff of LS Means vs placebo / PGA-OA: LS Mean change from Baseline / WOMAC Pain: Diff of LS Means vs placebo / WOMAC Pain: LS Mean change from Baseline / WOMAC Physical Function: Diff of LS Means vs placebo / WOMAC Physical Function: LS Mean change from Baseline / proportion of patients with ≥50% reduction from baseline in WOMAC Pain subscale: Week 16
Protocol: All patients provided written informed consent before participating. The study was conducted in compliance with the Declaration of Helsinki and all International Conference on Harmonisation Good Clinical Practice guidelines.
The co-primary efficacy endpoints were change from baseline to week 16 in WOMAC Pain subscale, WOMAC Physical Function subscale, and PGA-OA (Theiler et al., Osteoarthritis Cartilage. 2002; 10(6):479-481; Stengaard-Pederson et al., Rheumatology (Oxford). 2004; 43(5):592-595). WOMAC Pain and WOMAC Physical Function subscales measured symptoms within the last 48 hours; both used an 11-point numeric rating scale where higher scores indicated higher levels of pain or worse function. For PGA-OA, patients answered the question “Considering all the ways your osteoarthritis in your hip/knee affects you, how are you doing today?” on a scale from 1=“very good” to 5=“very poor.”
A key secondary efficacy endpoint was the WOMAC Pain […], responder rate at week 16. Other secondary efficacy endpoints were WOMAC Pain responder rates (≥30%, ≤70%, and ≤90%) at week 16 and patient-reported rescue medication use during weeks 2, 4, 8, 12, and 16.
Individual patient transitions in WOMAC Pain response categories (non-response defined as <30% reduction in WOMAC Pain; moderate response as ≥30%, but <50% reduction in WOMAC Pain; and substantial response as […], reduction from baseline in WOMAC Pain) between adjacent time points through the study (from week 4 to week 8, from week 8 to week 12, and from week 12 to week 16), were investigated using contingency tables. These analyses were conducted post hoc. Consistent non-responders were those patients with less than a 30% reduction from baseline in WOMAC Pain at two consecutive time points. Consistent moderate responders were those patients with at least a 30% but less than 50% reduction from baseline in WOMAC Pain at two consecutive time points. Consistent substantial responders were those patients who maintained at least a 50% reduction from baseline in WOMAC Pain at two consecutive time points.
Co-primary endpoints were analyzed in the intent-to-treat population (all patients who received ≥1 study medication dose) using an analysis of covariance model, with terms for baseline score, baseline patient diary average pain, index joint, Kellgren-Lawrence grade, and treatment group, and study site as a random effect. Missing data were handled with a multiple imputation strategy dependent on the reason for discontinuation.
Comparisons for other secondary endpoints were unadjusted. […] Safety assessments were summarized by treatment group as percentages of the treatment group population.

[2] = tested on: patients with moderate to severe OA of the hip or knee; experiment: Example 1: safety assessments (adverse events, neurological assessments); type: in vivo, human; conditions: SC 2.5 mg and 2.5/5 mg regimens
Source text: Safety assessments included: adverse event (AE) reporting; laboratory testing; 12-lead electrocardiogram; sitting vital signs; orthostatic blood pressure assessments; physical examinations; musculoskeletal examinations; neurological examinations reported using the Neuropathy Impairment Score (Dyck et al., Neurology. 1995; 45(6):1115-1121); Survey of Autonomic Symptoms scores (Zilliox et al., Neurology. 2011; 76(12):1099-1105); adjudication of joint safety events including total joint replacements (TJRs); and anti-drug antibody assessments. AEs were coded using MedDRA v21.0. AE severity and relationship to study treatment were assessed by the investigator.
Patients meeting protocol-specified criteria were further evaluated for peripheral neuropathy and/or sympathetic autonomic neuropathy. Neurological examinations were conducted at all clinic visits by investigators or designated physicians who received protocol-required training, and findings were recorded using the Neuropathy Impairment Score (Dyck et al).

[3] = tested on: patients with OA of the knee or hip; experiment: Example 2: randomized, double-blind, placebo-controlled study (24-week treatment; SC tanezumab at baseline, week 8, week 16), efficacy; type: in vivo, human; conditions: for WOMAC Pain subscale Change from Baseline: LS Mean / WOMAC Pain subscale Change from Baseline: LS Mean Difference vs. placebo: Week 2; for PGA-OA: LS Mean (SE) change from Baseline / PGA-OA: LS Mean Difference vs. placebo (SE) / WOMAC Pain: LS Mean Difference vs. placebo (SE) / WOMAC Physical Function: LS Mean (SE) change from Baseline / WOMAC Physical Function: LS Mean Difference vs. placebo (SE) / WOMAC Pain: LS Mean (SE) change from Baseline / % of subjects with ≥50% reduction in the WOMAC Pain subscale / Number of subjects with ≥50% reduction in the WOMAC Pain subscale / WOMAC Pain: LS mean difference±SE versus placebo: Week 24; for WOMAC Pain: LS Mean (SE) change from Baseline: ITT, multiple imputation; for % of subjects with ≥50% reduction in the WOMAC Pain subscale / Number of subjects with ≥50% reduction in the WOMAC Pain subscale: mixed BOCF and LOCF
Source text: (§1) Key inclusion criteria were Western Ontario and McMaster Universities Osteoarthritis Index (WOMAC) Pain and Physical Function scores in the index joint; a Patient Global Assessment of OA (PGA-OA) score of fair, poor, or very poor; a history of insufficient pain relief or intolerance to acetaminophen, oral NSAID, and either tramadol or opioids (or unwilling to take opioids). […] Co-primary endpoints were change from baseline in WOMAC Pain, WOMAC Physical Function, and PGA-OA scores at week 24 compared with placebo. Three key secondary endpoints were: reduction in the WOMAC Pain subscale of 50%, at Week 24, WOMAC Pain subscale change from Baseline to Week 2, and weekly average pain score (based on daily diary) in the index joint change from Baseline to Week 1. Safety, including adjudication of joint safety events, was assessed.

[4] = tested on: patients with OA of the knee or hip; experiment: Example 2: safety, including adjudication of joint safety events; type: in vivo, human
Source text: as §1

NGF [5] = molecular target: T1, NGF (Homo sapiens, UniProt P01138); conditions: cited from earlier work
NGF [6] = molecular target: T1, NGF; conditions: cell culture models; cited from earlier work

T1 sequence (P01138 122-241): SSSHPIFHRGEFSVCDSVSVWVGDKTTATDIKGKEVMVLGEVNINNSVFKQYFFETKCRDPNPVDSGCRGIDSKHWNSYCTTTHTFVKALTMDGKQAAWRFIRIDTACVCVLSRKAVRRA

tanezumab: humanized immunoglobulin G Type 2 (IgG2) monoclonal antibody directed against human nerve growth factor (NGF); SEQ ID NOs: 9 or 11 and 10
PGA-OA: Diff of LS Means vs placebo ([1]; 2.5 mg SC): −0.22 | PGA-OA: LS Mean change from Baseline ([1]; 2.5 mg SC): −0.87 | WOMAC Pain: Diff of LS Means vs placebo ([1]; 2.5 mg SC): −0.60 | WOMAC Pain: LS Mean change from Baseline ([1]; 2.5 mg SC): −3.23 | WOMAC Physical Function: Diff of LS Means vs placebo ([1]; 2.5 mg SC): −0.66 | WOMAC Physical Function: LS Mean change from Baseline ([1]; 2.5 mg SC): −3.22 | proportion of patients with ≥50% reduction from baseline in WOMAC Pain subscale ([1]; 2.5 mg SC): 54.5% | week 8 non-responders (<30% reduction in WOMAC Pain) transitioning to a moderate response at week 12 ([1]; 2.5 mg group (10/88)): 11.4% | week 8 non-responders (<30% reduction in WOMAC Pain) transitioning to a substantial response at week 12 ([1]; 2.5 mg group (14/88)): 15.9% | patients maintaining a moderate or substantial response from week 8 to week 12 ([1]; 2.5 mg group (138/231)): 59.7% | PGA-OA: Diff of LS Means vs placebo ([1]; 2.5/5 mg SC): −0.25 | PGA-OA: LS Mean change from Baseline ([1]; 2.5/5 mg SC): −0.90 | WOMAC Pain: Diff of LS Means vs placebo ([1]; 2.5/5 mg SC): −0.73 | WOMAC Pain: LS Mean change from Baseline ([1]; 2.5/5 mg SC): −3.37 | WOMAC Physical Function: Diff of LS Means vs placebo ([1]; 2.5/5 mg SC): −0.89 | WOMAC Physical Function: LS Mean change from Baseline ([1]; 2.5/5 mg SC): −3.45 | proportion of patients with ≥50% reduction from baseline in WOMAC Pain subscale ([1]; 2.5/5 mg SC): 57.1% | week 8 non-responders (<30% reduction in WOMAC Pain) transitioning to a substantial response at week 12 ([1]; 2.5/5 mg group (17/90)): 18.9% | week 8 non-responders (<30% reduction in WOMAC Pain) transitioning to a moderate response at week 12 ([1]; 2.5/5 mg group (20/90)): 22.2% | patients maintaining a moderate or substantial response from week 8 to week 12 ([1]; 2.5/5 mg group (138/233)): 59.2% | overall safety and tolerability [2]: generally safe and well-tolerated | WOMAC Pain subscale Change from Baseline: LS Mean ([3]; 2.5 mg SC): −2.02 | WOMAC Pain subscale Change from Baseline: LS Mean Difference vs. placebo ([3]; 2.5 mg SC): −0.67 | PGA-OA: LS Mean (SE) change from Baseline ([3]; 2.5 mg SC): −0.82 (0.06) | PGA-OA: LS Mean Difference vs. placebo (SE) ([3]; 2.5 mg SC): −0.11 (0.07) | WOMAC Pain: LS Mean Difference vs. placebo (SE) ([3]; 2.5 mg SC): −0.46 (0.18) | WOMAC Physical Function: LS Mean (SE) change from Baseline ([3]; 2.5 mg SC): −2.70 (0.17) | WOMAC Physical Function: LS Mean Difference vs. placebo (SE) ([3]; 2.5 mg SC): −0.59 (0.18) | WOMAC Pain: LS Mean (SE) change from Baseline ([3]; 2.5 mg SC): −2.70 (0.17) | % of subjects with ≥50% reduction in the WOMAC Pain subscale ([3]; 2.5 mg SC): (45.4%) | Number of subjects with ≥50% reduction in the WOMAC Pain subscale ([3]; 2.5 mg SC): 128 | WOMAC Pain: LS mean difference±SE versus placebo ([3]; 2.5 mg, index joint KL2/3): −0.19±0.23 | WOMAC Pain: LS mean difference±SE versus placebo ([3]; 2.5 mg, index joint KL4): −0.84±0.28 | WOMAC Pain subscale Change from Baseline: LS Mean ([3]; 5 mg SC): −1.69 | WOMAC Pain subscale Change from Baseline: LS Mean Difference vs. placebo ([3]; 5 mg SC): −0.34 | PGA-OA: LS Mean (SE) change from Baseline ([3]; 5 mg SC): −0.90 (0.06) | PGA-OA: LS Mean Difference vs. placebo (SE) ([3]; 5 mg SC): −0.19 (0.07) | WOMAC Pain: LS Mean Difference vs. placebo (SE) ([3]; 5 mg SC): −0.62 (0.18) | WOMAC Physical Function: LS Mean (SE) change from Baseline ([3]; 5 mg SC): −2.82 (0.17) | WOMAC Physical Function: LS Mean Difference vs. placebo (SE) ([3]; 5 mg SC): −0.71 (0.17) | WOMAC Pain: LS Mean (SE) change from Baseline ([3]; 5 mg SC): −2.85 (0.17) | % of subjects with ≥50% reduction in the WOMAC Pain subscale ([3]; 5 mg SC): (47.9%) | Number of subjects with ≥50% reduction in the WOMAC Pain subscale ([3]; 5 mg SC): 136 | WOMAC Pain: LS mean difference±SE versus placebo ([3]; 5 mg, index joint KL2/3): −0.32±0.23 | WOMAC Pain: LS mean difference±SE versus placebo ([3]; 5 mg, index joint KL4): −0.98±0.28 | Pre-specified composite joint safety endpoint events: % of patients ([4]; 2.5 mg SC): 1.8% | TJRs: % of patients ([4]; 2.5 mg SC): 7.8% | Treatment-emergent AEs: % of patients ([4]; 2.5 mg SC): 53% | incidence of serious AEs ([4]; 2.5 mg SC): 2.8% | Pre-specified composite joint safety endpoint events: % of patients ([4]; 5 mg SC): 3.2% | TJRs: % of patients ([4]; 5 mg SC): 7.0% | Treatment-emergent AEs: % of patients ([4]; 5 mg SC): 57% | incidence of serious AEs ([4]; 5 mg SC): 3.2% | binding to human NGF (NGF [5]): high affinity and specificity | blocking of the activity of NGF (NGF [6]): blocks the activity of NGF effectively
